In article PMC4363471, “Crystal Structure of Helicobacter pylori Pseudaminic Acid Biosynthesis N-Acetyltransferase PseH: Implications for Substrate Specificity and Catalysis” (PLoS ONE, 2015):

Biological target: T1, PseH (Helicobacter pylori, UniProt O25094)
T1 construct: recombinant; 21 kDa; homodimer
Assay: X-ray crystal structure ([…] Å, co-crystallization)
Type: binding
Details: co-crystallized with 5 mM AcCoA; cofactor site between strands β4 and β5

T1 sequence (O25094 whole entry): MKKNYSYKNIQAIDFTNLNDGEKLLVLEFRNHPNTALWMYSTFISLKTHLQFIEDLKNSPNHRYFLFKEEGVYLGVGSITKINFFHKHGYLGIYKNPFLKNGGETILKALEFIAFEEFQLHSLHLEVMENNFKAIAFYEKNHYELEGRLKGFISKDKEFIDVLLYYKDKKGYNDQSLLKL

CC(=O)SCCNC(=O)CCNC(=O)[C@H](O)C(C)(C)COP(=O)(O)OP(=O)(O)OC[C@H]1O[C@@H](n2cnc3c(N)ncnc32)[C@H](O)[C@@H]1OP(=O)(O)O [AcCoA]
X-ray crystal structure (2.3 Å, co-crystallization): Analysis of the difference Fourier map revealed an AcCoA binding site between the splayed strands
